Common to all, as to assay: Further analysis of a plurality of inhibitors and a plurality of kinases (Table 5 inhibition results)
Common to all, as to assay type: biochemical
Design in all cases: scale not given here

In test [1] the target is kinases of Table 5 (Homo sapiens, UniProt P09769). The note with it: for Inhibition level: kinase FGR; for Inhibition Results (Level): kinase FGR (Part II, plate B10, Domain 0). From the text:
(§1) The wash solution is then discarded.

The target of test [2] is kinases of Table 5 (Homo sapiens, UniProt P11309).
Text: as §1

The target of test [3] is kinases of Table 5 (Homo sapiens, UniProt P21802). The note with it: for Inhibition level: kinase FGFR2.
Text: as §1

Test [4] concerns the target T1, kinases of Table 5 (Homo sapiens, UniProt P45985).
T1 sequence (P45985 1-399): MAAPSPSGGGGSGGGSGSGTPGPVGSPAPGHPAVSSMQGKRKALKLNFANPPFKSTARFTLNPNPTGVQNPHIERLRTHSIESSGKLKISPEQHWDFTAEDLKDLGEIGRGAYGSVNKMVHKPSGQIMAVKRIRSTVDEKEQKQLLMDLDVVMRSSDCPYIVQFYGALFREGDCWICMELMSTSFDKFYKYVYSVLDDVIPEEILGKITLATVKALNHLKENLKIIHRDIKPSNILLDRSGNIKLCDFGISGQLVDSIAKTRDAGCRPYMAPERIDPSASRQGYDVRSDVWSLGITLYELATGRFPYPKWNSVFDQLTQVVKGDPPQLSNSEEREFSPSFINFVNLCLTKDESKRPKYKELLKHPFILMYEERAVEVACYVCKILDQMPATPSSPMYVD
Text: as §1

Test [5] addresses T2, kinases of Table 5 (Homo sapiens, UniProt P54753).
T2 sequence (P54753 34-998): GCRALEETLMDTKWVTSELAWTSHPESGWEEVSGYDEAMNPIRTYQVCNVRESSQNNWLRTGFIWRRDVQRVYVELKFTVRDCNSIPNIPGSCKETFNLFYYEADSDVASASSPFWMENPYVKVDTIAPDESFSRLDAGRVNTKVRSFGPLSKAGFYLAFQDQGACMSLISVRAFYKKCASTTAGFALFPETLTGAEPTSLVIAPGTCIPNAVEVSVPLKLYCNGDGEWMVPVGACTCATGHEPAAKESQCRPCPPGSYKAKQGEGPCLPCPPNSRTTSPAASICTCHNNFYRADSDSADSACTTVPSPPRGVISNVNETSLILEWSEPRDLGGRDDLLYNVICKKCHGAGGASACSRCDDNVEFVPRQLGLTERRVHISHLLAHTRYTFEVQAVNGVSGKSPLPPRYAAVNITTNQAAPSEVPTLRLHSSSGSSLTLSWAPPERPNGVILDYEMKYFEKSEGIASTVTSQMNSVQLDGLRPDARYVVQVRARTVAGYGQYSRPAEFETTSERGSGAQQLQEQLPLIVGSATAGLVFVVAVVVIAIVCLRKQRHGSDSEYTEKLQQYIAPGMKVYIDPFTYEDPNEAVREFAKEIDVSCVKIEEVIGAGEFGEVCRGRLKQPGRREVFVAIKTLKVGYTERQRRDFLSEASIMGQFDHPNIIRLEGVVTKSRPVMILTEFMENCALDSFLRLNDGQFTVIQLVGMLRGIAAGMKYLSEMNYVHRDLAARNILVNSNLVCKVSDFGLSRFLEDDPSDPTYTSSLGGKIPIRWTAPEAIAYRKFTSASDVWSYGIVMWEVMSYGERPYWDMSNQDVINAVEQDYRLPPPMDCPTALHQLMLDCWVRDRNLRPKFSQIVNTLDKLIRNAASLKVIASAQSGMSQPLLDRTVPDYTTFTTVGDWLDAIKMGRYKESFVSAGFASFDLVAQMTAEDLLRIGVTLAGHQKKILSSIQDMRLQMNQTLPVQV
To be noted: for Inhibition level: kinase EPHB3; for Inhibition Results (Level): kinase EPHB3 (Part II, plate B5, Domain 1).
Text: as §1

In test [6] the target is T3, kinases of Table 5 (Homo sapiens, UniProt Q13043).
T3 sequence (Q13043 1-487): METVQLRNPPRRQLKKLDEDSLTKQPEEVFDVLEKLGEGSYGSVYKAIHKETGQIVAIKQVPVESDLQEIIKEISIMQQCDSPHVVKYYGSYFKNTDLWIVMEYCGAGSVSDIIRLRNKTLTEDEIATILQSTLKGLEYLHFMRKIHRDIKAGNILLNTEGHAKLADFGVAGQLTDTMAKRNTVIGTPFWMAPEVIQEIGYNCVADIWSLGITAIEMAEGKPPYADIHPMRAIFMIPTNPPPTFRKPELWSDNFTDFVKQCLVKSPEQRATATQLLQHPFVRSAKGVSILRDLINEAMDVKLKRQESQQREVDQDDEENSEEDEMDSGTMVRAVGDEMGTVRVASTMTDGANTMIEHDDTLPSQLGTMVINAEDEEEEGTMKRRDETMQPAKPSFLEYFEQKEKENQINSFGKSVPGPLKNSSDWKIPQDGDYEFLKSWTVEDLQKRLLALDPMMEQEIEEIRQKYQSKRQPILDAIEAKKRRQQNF
The note with it: for Inhibition level: kinase STK4; for Inhibition Results (Level): kinase STK4 (Part II, plate D6, Domain 1).
Text: as §1

Test [7] deals with T4, kinases of Table 5 (Homo sapiens, UniProt Q99759).
T4 sequence (Q99759 1-626): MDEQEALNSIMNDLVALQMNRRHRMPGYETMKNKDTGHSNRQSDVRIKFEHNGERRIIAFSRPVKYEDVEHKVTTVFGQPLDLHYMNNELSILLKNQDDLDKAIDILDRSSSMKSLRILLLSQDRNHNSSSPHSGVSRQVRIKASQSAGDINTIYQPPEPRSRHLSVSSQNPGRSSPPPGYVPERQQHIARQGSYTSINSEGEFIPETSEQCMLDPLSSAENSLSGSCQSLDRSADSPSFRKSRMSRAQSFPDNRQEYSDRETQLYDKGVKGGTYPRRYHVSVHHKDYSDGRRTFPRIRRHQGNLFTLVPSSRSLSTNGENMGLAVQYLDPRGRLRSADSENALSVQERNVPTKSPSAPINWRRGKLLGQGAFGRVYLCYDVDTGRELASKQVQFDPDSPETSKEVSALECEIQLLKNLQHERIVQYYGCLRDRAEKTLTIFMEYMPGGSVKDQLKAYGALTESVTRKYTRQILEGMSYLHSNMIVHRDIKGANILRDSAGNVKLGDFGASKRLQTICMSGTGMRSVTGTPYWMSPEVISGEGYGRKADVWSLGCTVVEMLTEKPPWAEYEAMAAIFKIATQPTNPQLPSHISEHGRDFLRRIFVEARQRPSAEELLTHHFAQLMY
To be noted: kinase MAP3K3 (Part I, plate A1, Domain 0).
Text: as §1

[8] abbreviates: kinase PIM1 (Part I, plate C2, Domain 1), inhibitor 100 uM.
The mark [9] stands for this setting: kinase FGFR2 (Part I, plate G8, Domain 1), inhibitor 100 uM.
Where [10] appears, read: kinase MAP2K4 (Part I, plate E6, Domain 1), inhibitor 100 uM.
[11] abbreviates: kinase FGFR2 (Part II, plate B4, Domain 1), inhibitor 100 uM.

Read-outs that look alike come from different tables or passages of the source.

Sequence of kinases of Table 5 (Homo sapiens, UniProt P11309) (P11309 whole entry): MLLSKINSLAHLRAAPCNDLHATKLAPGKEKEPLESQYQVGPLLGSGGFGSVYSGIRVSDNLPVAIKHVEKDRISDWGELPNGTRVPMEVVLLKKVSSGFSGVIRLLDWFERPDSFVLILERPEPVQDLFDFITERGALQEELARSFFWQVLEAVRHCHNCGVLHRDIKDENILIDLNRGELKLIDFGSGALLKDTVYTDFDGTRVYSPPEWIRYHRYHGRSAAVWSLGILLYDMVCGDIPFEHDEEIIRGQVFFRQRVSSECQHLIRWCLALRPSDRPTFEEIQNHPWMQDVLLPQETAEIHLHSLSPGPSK
Sequence of kinases of Table 5 (Homo sapiens, UniProt P09769) (P09769 whole entry): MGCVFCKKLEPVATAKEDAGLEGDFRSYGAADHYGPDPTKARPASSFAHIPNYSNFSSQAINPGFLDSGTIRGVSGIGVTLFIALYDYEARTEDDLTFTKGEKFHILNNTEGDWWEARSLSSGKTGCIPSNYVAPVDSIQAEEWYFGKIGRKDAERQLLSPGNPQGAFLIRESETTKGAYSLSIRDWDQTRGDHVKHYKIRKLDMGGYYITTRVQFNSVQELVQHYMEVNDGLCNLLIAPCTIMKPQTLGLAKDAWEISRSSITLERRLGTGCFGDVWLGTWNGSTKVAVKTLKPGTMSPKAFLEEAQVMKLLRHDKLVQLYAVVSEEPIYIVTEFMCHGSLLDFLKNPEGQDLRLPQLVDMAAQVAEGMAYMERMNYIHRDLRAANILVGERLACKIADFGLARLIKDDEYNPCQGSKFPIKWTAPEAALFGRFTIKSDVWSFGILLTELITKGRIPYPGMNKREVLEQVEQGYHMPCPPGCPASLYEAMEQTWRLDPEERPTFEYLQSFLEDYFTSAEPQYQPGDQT
Sequence of kinases of Table 5 (Homo sapiens, UniProt P21802) (P21802 22-821): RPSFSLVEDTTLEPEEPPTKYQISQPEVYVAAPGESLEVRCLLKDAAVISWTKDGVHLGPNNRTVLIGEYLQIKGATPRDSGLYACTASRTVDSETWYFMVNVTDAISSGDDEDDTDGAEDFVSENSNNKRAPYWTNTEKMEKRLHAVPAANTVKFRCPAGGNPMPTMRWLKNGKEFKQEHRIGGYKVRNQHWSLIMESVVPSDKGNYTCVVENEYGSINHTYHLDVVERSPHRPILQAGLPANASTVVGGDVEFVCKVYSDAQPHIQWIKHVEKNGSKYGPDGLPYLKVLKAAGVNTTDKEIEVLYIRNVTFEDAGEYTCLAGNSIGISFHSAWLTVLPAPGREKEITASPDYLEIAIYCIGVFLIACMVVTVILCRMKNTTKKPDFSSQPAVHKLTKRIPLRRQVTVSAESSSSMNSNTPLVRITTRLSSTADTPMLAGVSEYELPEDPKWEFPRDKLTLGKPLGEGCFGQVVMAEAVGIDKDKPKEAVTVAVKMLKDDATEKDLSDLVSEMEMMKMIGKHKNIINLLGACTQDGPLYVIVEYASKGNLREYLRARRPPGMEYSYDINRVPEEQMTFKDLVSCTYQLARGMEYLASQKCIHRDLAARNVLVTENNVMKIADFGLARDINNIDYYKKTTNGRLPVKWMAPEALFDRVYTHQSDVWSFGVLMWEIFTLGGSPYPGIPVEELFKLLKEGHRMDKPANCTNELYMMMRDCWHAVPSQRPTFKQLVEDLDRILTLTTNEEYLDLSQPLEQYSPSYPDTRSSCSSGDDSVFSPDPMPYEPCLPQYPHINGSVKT

With `N#C/C(=C/c1ccc(O)c(O)c1)C(=O)NCc1ccccc1` [AG 490], the Inhibition level on kinases of Table 5 [1] (inhibitor 100 uM) was determined as 2; at kinases of Table 5 [3] (inhibitor 100 uM) it was 2; on kinases of Table 5 [5] (inhibitor 100 uM), 2; on kinases of Table 5 [6] (inhibitor 100 uM), 0. Moreover, the “Inhibition Results (Level)” value at kinases of Table 5 [2] (setting [8]) was determined as 2; at kinases of Table 5 [3] (setting [9]), 2; at kinases of Table 5 [4] (setting [10]), 0; on kinases of Table 5 [7] (inhibitor 100 uM), 2.
In the case of `COc1cc2ncnc(Nc3cccc(Cl)c3)c2cc1OC` [AG 1478], the Inhibition level is given as 2 at kinases of Table 5 [1] (inhibitor 100 uM), 2 on kinases of Table 5 [3] (inhibitor 100 uM), 2 on kinases of Table 5 [5] (inhibitor 100 uM) and 1 on kinases of Table 5 [6] (inhibitor 100 uM). For the same compound, the “Inhibition Results (Level)” value at kinases of Table 5 [2] (setting [8]) was 1; at kinases of Table 5 [3] (setting [9]), 2; on kinases of Table 5 [4] (setting [10]), 0; at kinases of Table 5 [7] (inhibitor 100 uM) it was 2.
For `O=c1c(-c2ccc(O)cc2)coc2cc(O)cc(O)c12` [Genistein], the Inhibition level on kinases of Table 5 [1] (concentration not given) amounted to 2; at kinases of Table 5 [1] (inhibitor 100 uM) it was 2; on kinases of Table 5 [3] (concentration not given), 1; on kinases of Table 5 [3] (inhibitor 100 uM) it was 2; on kinases of Table 5 [5] (concentration not given) it was 0; on kinases of Table 5 [5] (inhibitor 100 uM) it was 2. In addition, the Inhibition level at kinases of Table 5 [6] (concentration not given) and on kinases of Table 5 [6] (inhibitor 100 uM) was 0 in each case. Further, the “Inhibition Results (Level)” value on kinases of Table 5 [2] (setting [8]) is listed as 2; at kinases of Table 5 [2] (kinase PIM1 (Part I, plate C2, Domain 1), inhibitor <3.7 mM), 0; at kinases of Table 5 [3] (setting [9]) it was 2; at kinases of Table 5 [3] (kinase FGFR2 (Part I, plate G8, Domain 1), inhibitor <3.7 mM) it was 0; on kinases of Table 5 [4] (setting [10]), 2; at kinases of Table 5 [4] (kinase MAP2K4 (Part I, plate E6, Domain 1), inhibitor <3.7 mM), 0. In addition, the “Inhibition Results (Level)” value at kinases of Table 5 [7] (inhibitor 100 uM) and on kinases of Table 5 [7] (inhibitor <3.7 mM) was 2 in each case.
`O=S(=O)(NCCNC/C=C/c1ccc(Br)cc1)c1cccc2cnccc12` [H-89]: the “Inhibition Results (Level)” value on kinases of Table 5 [1] (inhibitor 100 uM) was found to be 2; at kinases of Table 5 [2] (setting [8]) it was 2; on kinases of Table 5 [3] (setting [9]), 2; at kinases of Table 5 [3] (setting [11]) it was 2; on kinases of Table 5 [4] (setting [10]) it was 1; on kinases of Table 5 [5] (inhibitor 100 uM), 1. In addition, the “Inhibition Results (Level)” value at kinases of Table 5 [6] (inhibitor 100 uM) and at kinases of Table 5 [7] (inhibitor 100 uM) was 2 in each case.
As to `CC(C)(C)n1nc(-c2ccc(Cl)cc2)c2c(N)ncnc21` [PP2], the Inhibition level on kinases of Table 5 [1] (inhibitor 100 uM), on kinases of Table 5 [3] (inhibitor 100 uM), on kinases of Table 5 [5] (inhibitor 100 uM) and on kinases of Table 5 [6] (inhibitor 100 uM) was 2 in each case. Further, the “Inhibition Results (Level)” value on kinases of Table 5 [2] (setting [8]), on kinases of Table 5 [3] (setting [9]), at kinases of Table 5 [4] (setting [10]) and on kinases of Table 5 [7] (inhibitor 100 uM) was 2 in each case.
As to `O=c1c(O)c(-c2ccc(O)c(O)c2)oc2cc(O)cc(O)c12` [Quercetin], the “Inhibition Results (Level)” value on kinases of Table 5 [1] (inhibitor 100 uM) was found to be 2; on kinases of Table 5 [3] (setting [9]), 0; on kinases of Table 5 [3] (setting [11]) it was 0; on kinases of Table 5 [4] (setting [10]), 0; at kinases of Table 5 [5] (inhibitor 100 uM), 2; on kinases of Table 5 [6] (inhibitor 100 uM) it was 0. In addition, the “Inhibition Results (Level)” value at kinases of Table 5 [7] (inhibitor 100 uM) is given as 0.
`Cn1cc(C2=C(c3cn(CCCSC(=N)N)c4ccccc34)C(=O)NC2=O)c2ccccc21` [Ro-31-8220]: the Inhibition level on kinases of Table 5 [1] (concentration not given) is 2; on kinases of Table 5 [1] (inhibitor 100 uM), 2; at kinases of Table 5 [3] (concentration not given), 0; on kinases of Table 5 [3] (inhibitor 100 uM), 2; at kinases of Table 5 [5] (concentration not given) it was 0; on kinases of Table 5 [5] (inhibitor 100 uM) it was 2. For the same compound, the Inhibition level on kinases of Table 5 [6] (concentration not given) was determined as 0; on kinases of Table 5 [6] (inhibitor 100 uM), 2. The “Inhibition Results (Level)” value worked out at 2 at kinases of Table 5 [2] (kinase PIM1 (Part I, plate C2, Domain 1), inhibitor 90 uM); 0 at kinases of Table 5 [2] (setting [8]); 2 on kinases of Table 5 [3] (kinase FGFR2 (Part I, plate G8, Domain 1), inhibitor 90 uM); 2 at kinases of Table 5 [3] (setting [9]); 0 at kinases of Table 5 [4] (kinase MAP2K4 (Part I, plate E6, Domain 1), inhibitor 90 uM); 1 at kinases of Table 5 [4] (setting [10]). Moreover, the results for the “Inhibition Results (Level)” value on kinases of Table 5 [7] (inhibitor 90 uM) and on kinases of Table 5 [7] (inhibitor 100 uM) were 2 and 0, respectively.
With `CC(=O)c1c(O)c(C)c(O)c(Cc2c(O)c3c(c(C(=O)/C=C/c4ccccc4)c2O)OC(C)(C)C=C3)c1O` [Rottlerin (Mallotoxin)], the “Inhibition Results (Level)” value stood at 2 at kinases of Table 5 [1] (inhibitor 100 uM); 2 on kinases of Table 5 [2] (setting [8]); 2 at kinases of Table 5 [3] (setting [9]); 0 at kinases of Table 5 [3] (setting [11]); 1 on kinases of Table 5 [4] (setting [10]); 2 on kinases of Table 5 [5] (inhibitor 100 uM). For the same compound, the results for the “Inhibition Results (Level)” value on kinases of Table 5 [6] (inhibitor 100 uM) and on kinases of Table 5 [7] (inhibitor 100 uM) were 0 and 2, respectively.
As for `CN[C@@H]1C[C@H]2O[C@@](C)([C@@H]1OC)n1c3ccccc3c3c4c(c5c6ccccc6n2c5c31)C(=O)NC4` [Staurosporine], the results for the Inhibition level at kinases of Table 5 [1] (concentration not given), at kinases of Table 5 [5] (concentration not given) and at kinases of Table 5 [6] (concentration not given) were 2, 0 and 0, respectively. Further, the “Inhibition Results (Level)” value was determined as 2 on kinases of Table 5 [2], 0 on kinases of Table 5 [4] and 2 at kinases of Table 5 [7] (inhibitor 21.5 uM).
